Laboratory results from patent US8618163B2, “Derivatives of cycloalkyl- and cycloalkenyl-1,2-dicarboxylic acid compounds having formyl peptide receptor like-1 (FPRL-1) agonist or antagonist activity” (Allergan, Inc., priority 2010, dated 2013).
Like-named read-outs stand apart in the source and are kept apart here.

Legend:
[1] = target: T1, FPR1 (Homo sapiens, UniProt P21462); assay: compound-induced calcium activity on FLIPR Tetra in HEK-Gqi5 cells stable expressing FPR1; assay type: cell-based; design: FPR1 (rel. eff.): scale not given here; details: for FPR1 (rel. eff.): relative efficacy, calcium, FLIPR Tetra
T1 construct: expressed in transfected cells; host or cells: HEK-Gqi5 (HEK cells with chimeric G protein Gqi5)
T1 sequence (P21462 1-350): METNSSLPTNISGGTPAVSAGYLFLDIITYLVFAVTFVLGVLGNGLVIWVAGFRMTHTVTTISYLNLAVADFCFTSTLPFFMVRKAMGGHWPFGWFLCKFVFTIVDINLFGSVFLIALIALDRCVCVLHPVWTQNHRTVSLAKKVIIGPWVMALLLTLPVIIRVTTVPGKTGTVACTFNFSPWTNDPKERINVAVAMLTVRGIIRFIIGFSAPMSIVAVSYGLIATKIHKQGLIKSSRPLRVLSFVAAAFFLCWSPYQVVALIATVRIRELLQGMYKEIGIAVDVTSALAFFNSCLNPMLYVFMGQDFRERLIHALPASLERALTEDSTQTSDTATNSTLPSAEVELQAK
Experimental: (§1) CHO-Gal6 cells stably expressing FPRL1 were cultured in (F12, 10% FBS, 1% PSA, 400 μg/ml geneticin and 50 μg/ml hygromycin) and HEK-Gqi5 cells stable expressing FPR1 were cultured in (DMEM high glucose, 10% FBS, 1% PSA, 400 μg/ml geneticin and 50 μg/ml hygromycin). In general, the day before the experiment, 18,000 cells/well were plated in a 384-well clear bottom poly-d-lysine coated plate. The following day the screening compound-induced calcium activity was assayed on the FLIPR^Tetra. The drug plates were prepared in 384-well microplates using the EP3 and the MultiPROBE robotic liquid handling systems. Compounds were tested at concentrations ranging from 0.61 to 10,000 nM. Results are expressed as EC50 (nM) and efficacy values.

[2] = target: T2, FPRL1 (Homo sapiens, UniProt P25090); assay: compound-induced calcium activity on FLIPR Tetra in CHO-Gal6 cells stably expressing FPRL1; assay type: cell-based; details: for EC50: read-out: FPRL1 EC50; for FPRL1 (rel. eff.): relative efficacy
T2 construct: expressed in transfected cells; host or cells: CHO-Gal6 (CHO cells with G alpha 16)
T2 sequence (P25090 1-351): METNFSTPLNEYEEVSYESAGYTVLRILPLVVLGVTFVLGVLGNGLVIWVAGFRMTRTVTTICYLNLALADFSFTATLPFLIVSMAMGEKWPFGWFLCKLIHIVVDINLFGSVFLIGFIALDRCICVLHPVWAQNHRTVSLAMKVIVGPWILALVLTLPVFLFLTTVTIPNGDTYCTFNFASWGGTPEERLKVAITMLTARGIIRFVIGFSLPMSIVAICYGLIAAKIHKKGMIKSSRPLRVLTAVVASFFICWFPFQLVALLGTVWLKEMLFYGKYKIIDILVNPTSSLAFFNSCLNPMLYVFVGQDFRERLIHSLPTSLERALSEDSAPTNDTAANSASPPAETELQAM
Experimental: as §1

[3] = cells printed in μM, read-out: FPR1 EC50
[4] = calcium, FLIPR Tetra, tested 0.61 to 10,000 nM
[5] = class symbol NA, read-out: FPR1 EC50 (NA = Not Active)

`CC(=O)c1ccc(NC(=O)[C@H]2[C@@H](C(=O)O)[C@H]3CC[C@@H]2C32CC2)cc1` (racemic) [Compound 43, (+/−)-(1S,2R,3S,4R)-2-((4-Acetylphenyl)carbamoyl)spiro[bicyclo[2.2.1]heptane-7,1′-cyclopropane]-3-carboxylic Acid] was tested, and the EC50 [1, 3] was > 10 µM, the “FPR1 (rel. eff.)” value [1] was 0.50 and the EC50 [2, 4] was 0.049 µM. For the same compound, the “FPRL1 (rel. eff.)” value ([2]; calcium, FLIPR Tetra) was 0.71.
In the case of `C[S+]([O-])c1ccc(NC(=O)C2C(C(=O)O)C3CCC2C32CC2)cc1` (racemic) [Compound 44, (+/−)-(1R,2S,3R,4S)-3-((4-(Methylsulfinyl)phenyl)carbamoyl)spiro[bicyclo-[2.2.1]heptane-7,1′-cyclopropane]-2-carboxylic Acid], the EC50 [1, 5] is reported as > 10 µM, the EC50 [2, 4] is reported as 0.475 µM and the “FPRL1 (rel. eff.)” value ([2]; calcium, FLIPR Tetra) is reported as 0.95.
With `NC(=O)C1C(C(=O)Nc2ccc(Br)cc2)C2CCC1C21CC1` (racemic) [Compound 46A] the EC50 [1, 5] was > 10 µM, the EC50 [2, 4] was 6.52 µM and the “FPRL1 (rel. eff.)” value ([2]; calcium, FLIPR Tetra) was 0.85.
`NC(=O)C1C(C(=O)Nc2ccc(Br)cc2)C2CCC1C21CC1` (racemic) [Compound 46B] was tested, and the EC50 [1, 3] was > 40 µM, the “FPR1 (rel. eff.)” value [1] was 0.30 and the EC50 [2, 4] was < 0.001 µM. For the same compound, the “FPRL1 (rel. eff.)” value ([2]; calcium, FLIPR Tetra) was 0.91.
`CCc1ccc(NC(=O)C2C(C(N)=O)C3C=CC2C32CC2)cc1` (racemic) [Compound 48, (+/−)-(1R,4S,5R,6S)—N-5-(4-Ethylphenyl)spiro[bicyclo[2.2.1]hept[2]ene-7,1′-cyclopropane]-5,6-dicarboxamide] was tested, and the EC50 [1, 5] was > 10 µM, the EC50 [2, 4] was 0.051 µM and the “FPRL1 (rel. eff.)” value ([2]; calcium, FLIPR Tetra) was 0.79.
With `CSc1ccc(NC(=O)C2C(C(N)=O)C3C=CC2C32CC2)cc1` (racemic) [Compound 49, (+/−)-(1R,4S,5R,6S)—N-5-(4-(Methylthio)phenyl)spiro[bicyclo[2.2.1]hept[2]ene-7,1′-cyclopropane]-5,6-dicarboxamide] the EC50 [1, 5] was > 10 µM, the EC50 [2, 4] was 0.097 µM and the “FPRL1 (rel. eff.)” value ([2]; calcium, FLIPR Tetra) was 0.90.
In the case of `NC(=O)C1C(C(=O)Nc2ccc(I)cc2)C2C=CC1C21CC1` (racemic) [Compound 50, (+/−)-(1R,4S,5R,6S)—N-5-(4-Iodophenyl)spiro[bicyclo[2.2.1]hept[2]ene-7,1′-cyclopropane]-5,6-dicarboxamide], the EC50 [1, 5] is reported as > 10 µM, the EC50 [2, 4] is reported as 0.0018 µM and the “FPRL1 (rel. eff.)” value ([2]; calcium, FLIPR Tetra) is reported as 0.85.
`NC(=O)[C@@H]1[C@H](C(=O)Nc2ccc(I)cc2)[C@@H]2CC[C@H]1C21CC1` (racemic) [Compound 51, (+/−)-(1S,2R,3S,4R)—N2-(4-Iodophenyl)spiro[bicyclo[2.2.1]heptane-7,1′-cyclopropane]-2,3-dicarboxamide] was tested, and the EC50 [1, 5] was > 10 µM, the EC50 [2, 4] was < 0.0048 µM and the “FPRL1 (rel. eff.)” value ([2]; calcium, FLIPR Tetra) was 0.87.
With `CCc1ccc(NC(=O)[C@H]2[C@@H](C(N)=O)[C@H]3CC[C@@H]2C32CC2)cc1` (racemic) [Compound 52, (+/−)-(1S,2R,3S,4R)—N^2-(4-Ethylphenyl)spiro[bicyclo[2.2.1]heptane-7,1′-cyclopropane]-2,3-dicarboxamide] the EC50 [1, 5] was > 10 µM, the EC50 [2, 4] was 0.033 µM and the “FPRL1 (rel. eff.)” value ([2]; calcium, FLIPR Tetra) was 0.97.
`CSc1ccc(NC(=O)[C@H]2[C@@H](C(N)=O)[C@H]3CC[C@@H]2C32CC2)cc1` (racemic) [Compound 53, (+/−)-(1S,2R,3S,4R)—N2-(4-(Methylthio)phenyl)spiro[bicyclo[2.2.1]heptane-7,1′-cyclopropane]-2,3-dicarboxamide] was tested, and the EC50 [1, 5] was > 10 µM, the EC50 [2, 4] was 0.015 µM and the “FPRL1 (rel. eff.)” value ([2]; calcium, FLIPR Tetra) was 0.86.
In the case of `CC1(C)[C@@H]2CC[C@H]1[C@@H](C(=O)Nc1ccc(I)cc1)[C@H]2C(N)=O` (racemic) [Compound 55, (+/−)-(1S,2R,3S,4R)—N2-(4-Iodophenyl)-7,7-dimethylbicyclo[2.2.1]heptane-2,3-dicarboxamide], the EC50 [1, 5] is reported as > 10 µM and the “FPRL1 (rel. eff.)” value ([2]; calcium, FLIPR Tetra) is reported as 0.81.
With `CSc1ccc(NC(=O)[C@H]2[C@@H](C(N)=O)[C@H]3CC[C@@H]2C3(C)C)cc1` (racemic) [Compound 56, (+/−)-(1S,2R,3S,4R)-7,7-Dimethyl-N2-(4-(methylthio)phenyl)bicyclo[2.2.1]heptane-2,3-dicarboxamide] the EC50 [1, 5] was > 10 µM and the “FPRL1 (rel. eff.)” value ([2]; calcium, FLIPR Tetra) was “ND (0.96)”.
`CCc1ccc(NC(=O)[C@H]2[C@@H](C(N)=O)[C@H]3CC[C@@H]2C3(C)C)cc1` (racemic) [Compound 57, (+/−)-(1S,2R,3S,4R)—N2-(4-Ethylphenyl)-7,7-dimethylbicyclo[2.2.1]heptane-2,3-dicarboxamide] was tested, and the EC50 [1, 5] was > 10 µM, the EC50 [2, 4] was 0.035 µM and the “FPRL1 (rel. eff.)” value ([2]; calcium, FLIPR Tetra) was 0.95.
`O=C(Nc1ccc(Br)cc1)C1C(CO)C2C=CC1C21CC1` (racemic) [Compound 58, (+/−)-(1R,4S,5R,6S)—N-(4-Bromophenyl)-6-(hydroxymethyl)spiro[bicyclo[2.2.1]-hept[2]ene-7,1′-cyclopropane]-5-carboxamide] was tested, and the EC50 [1, 5] was > 10 µM, the EC50 [2, 4] was 0.229 µM and the “FPRL1 (rel. eff.)” value ([2]; calcium, FLIPR Tetra) was 0.91.
For `O=C(Nc1ccc(Br)cc1)[C@H]1[C@@H](CO)[C@H]2CC[C@@H]1C21CC1` (racemic) [Compound 59, (+/−)-(1S,2R,3S,4R)—N-(4-Bromophenyl)-3-(hydroxymethyl)spiro[bicyclo[2.2.1]-heptane-7,1′-cyclopropane]-2-carboxamide], the EC50 [1, 5] was > 10 µM, the EC50 ([2]; in μM) was > 10 µM and the “FPRL1 (rel. eff.)” value ([2]; calcium, FLIPR Tetra) was 0.76.
For `CC1(C)C2CCC1C(C(=O)Nc1ccc(I)cc1)C2C(N)=O` (racemic) [Compound 61, (+/−)-(1S,2R,3S,4R)—N^2-(4-Iodophenyl)-7,7-dimethylbicyclo[2.2.1]heptanes-2,3-dicarboxamide], the EC50 [1, 5] was > 10 µM and the “FPRL1 (rel. eff.)” value ([2]; calcium, FLIPR Tetra) was 0.82.
With `NC(=O)[C@@H]1[C@H](C(=O)Nc2ccc(I)cc2)[C@@H]2CC[C@H]1C21CC1` (racemic) [Compound 62, (+/−)-(1S,2R,3S,4R)—N^2-(4-Iodophenyl)-[bicyclo[2.2.1]heptane-7,1′-cyclopropane]-2,3-dicarboxamide] the EC50 [1, 5] was > 10 µM, the EC50 [2, 4] was 0.005 µM and the “FPRL1 (rel. eff.)” value ([2]; calcium, FLIPR Tetra) was 0.89.
With `CSc1ccc(NC(=O)C2C(C(N)=O)C3C=CC2C32CC2)cc1` (racemic) [Compound 63, (+/−)-(1R,4S,5R,6S)—N^5-(4-(Methylthio)phenyl)spiro[bicyclo[2.2.1]hept[2]ene-7,1′-cyclopropane]-5,6-dicarboxamide] the EC50 [1, 5] was > 10 µM, the EC50 [2, 4] was 0.0966 µM and the “FPRL1 (rel. eff.)” value ([2]; calcium, FLIPR Tetra) was 0.9.
In the case of `CSc1ccc(NC(=O)[C@H]2[C@@H](C(N)=O)[C@H]3CC[C@@H]2C3(C)C)cc1` (racemic) [Compound 64, (+/−)-(1S,2R,3S,4R)-7,7-Dimethyl-N^2-(4-(methylthio)phenyl)bicyclo[2.2.1]heptane-2,3-dicarboxamide], the EC50 [1, 5] is reported as > 10 µM, the EC50 [2, 4] is reported as 0.0172 µM and the “FPRL1 (rel. eff.)” value ([2]; calcium, FLIPR Tetra) is reported as 0.9.
`CCc1ccc(NC(=O)[C@H]2[C@@H](C(N)=O)[C@H]3CC[C@@H]2C3(C)C)cc1` (racemic) [Compound 65, (+/−)-(1S,2R,3S,4R)—N^2-(4-Ethylphenyl)-7,7-dimethyl-bicyclo[2.2.1]heptane-2,3-dicarboxamide] was tested, and the EC50 [1, 5] was > 10 µM, the EC50 [2, 4] was 0.035 µM and the “FPRL1 (rel. eff.)” value ([2]; calcium, FLIPR Tetra) was 0.95.
In the case of `CCc1ccc(NC(=O)C2C(C(N)=O)C3C=CC2C32CC2)cc1` (racemic) [Compound 66, (+/−)-(1R,4S,5R,6S)—N^5-(4-Ethylphenyl)spiro[bicyclo[2.2.1]hept[2]ene-7,1′-cyclopropane]-5,6-dicarboxamide], the EC50 [1, 5] is reported as > 10 µM, the EC50 [2, 4] is reported as 0.0508 µM and the “FPRL1 (rel. eff.)” value ([2]; calcium, FLIPR Tetra) is reported as 0.79.
With `CSc1ccc(NC(=O)[C@H]2[C@@H](C(N)=O)[C@H]3CC[C@@H]2C32CC2)cc1` (racemic) [Compound 67, (+/−)-(1S,2R,3S,4R)—N^2-(4-(Methylthio)phenyl)-spiro[bicyclo[2.2.1]heptane-7,1′-cyclopropane]-2,3-dicarboxamide] the EC50 [1, 5] was > 10 µM, the EC50 [2, 4] was 0.0157 µM and the “FPRL1 (rel. eff.)” value ([2]; calcium, FLIPR Tetra) was 0.91.
In the case of `CCc1ccc(NC(=O)[C@H]2[C@@H](C(N)=O)[C@H]3CC[C@@H]2C32CC2)cc1` (racemic) [Compound 68, (+/−)-(1S,2R,3S,4R)—N^2-(4-Ethyl-phenyl)-spiro[bicyclo[2.2.1]heptane-7,1′-cyclopropane]-2,3-dicarboxamide], the EC50 [1, 5] is reported as > 10 µM, the EC50 [2, 4] is reported as 0.0381 µM and the “FPRL1 (rel. eff.)” value ([2]; calcium, FLIPR Tetra) is reported as 1.0.
`NC(=O)C1C(C(=O)Nc2ccc(I)cc2)C2C=CC1C21CC1` (racemic) [Compound 69, (+/−)-(1R,4S,5R,6S)—N^5-(4-Iodophenyl)spiro[bicyclo[2.2.1]hept[2]ene-7,1′-cyclopropane]-5,6-dicarboxamide] was tested, and the EC50 [1, 5] was > 10 µM, the EC50 [2, 4] was 0.0077 µM and the “FPRL1 (rel. eff.)” value ([2]; calcium, FLIPR Tetra) was 0.87.
